The values below come from patent US12594296B2, “Methods for treatment or prevention of damage resulting from radiation, trauma or shock” (priority 2012, dated 2026).

Entries after “also recorded” stand apart in the source; their conditions may differ. Read-outs that look alike come from different tables or passages of the source. Bridge positions count the residues as written; N and C are the ends. Square brackets hold non-standard residues; d marks the D form. Peptide text beside a SMILES is read from it. * marks the point of attachment. Ileψ(thiazoline)Cys = CC[C@H](C)[C@H](N)C1=N[C@H](C(=O)*)CS1; dOrn = NCCC[C@@H](N)C(=O)O

In one experiment the test system is Clostridium perfringens. In kind it is in vivo, chicks.
The next experiment deals with A431 epidermal cells. As to the kind of experiment: Scratch healing of confluent A431 epidermal cell monolayer. In kind it is cell-based. The following applies: serum free DMEM; 24, 48, 72 or 96 hours. Here is the method:
A431 epidermal cells were seeded into 4-well chamber slides in DMEM plus 10% FBS at a density to be confluent the next day (5×10^5/well (˜1.8 cm^2)). The following day, a scratch was made across the confluent monolayer using a sterile 10 μl tip. The medium was aspirated and the wells rinsed with DMEM to remove floating debris. Serum free DMEM was added to all wells, plus or minus PAAG (18 kD, 25% functionalization) or EGF as a positive control. Cells were treated for 24, 48, 72 or 96 hours. Cells were fixed with paraformaldehyde at the indicated times and stained with hematoxylin for better visualization. A representative scratch at time 0 is duplicated at the top of each column of treatments for comparison depicted in FIG. 13.

Regarding “poly (acetyl, arginyl) glucosamine [PAAG (22 kD, 36% functionalization)]”, in the experiment with Clostridium perfringens (in vivo), the “mortality relative to control” value was “reduced mortality with statistical significance; also recorded: reduced morality with statistical significance” and the treated animals died worked out at 15%.
Consider “EGF: EGF as a positive control [reference compound]”, for which the healing of scratches entry in the experiment with A431 epidermal cells is “faster than control”.
As to “poly (acetyl, arginyl) glucosamine [PAAG (18 kD, 25% functionalization)]”, in the experiment on A431 epidermal cells, the healing of scratches result is “faster than control”.
Regarding `CC[C@H](C)[C@H](N)C1=N[C@H](C(=O)N[C@@H](CC(C)C)C(=O)N[C@H](CCC(=O)O)C(=O)N[C@H](C(=O)N[C@H]2CCCCNC(=O)[C@H](CC(N)=O)NC(=O)[C@@H](CC(=O)O)NC(=O)[C@H](Cc3cnc[nH]3)NC(=O)[C@@H](Cc3ccccc3)NC(=O)[C@H]([C@@H](C)CC)NC(=O)[C@@H](CCCN)NC2=O)[C@@H](C)CC)CS1` [Bacitracin, reference compound] ({Ileψ(thiazoline)Cys}-L[dE]IK[dOrn]I[dF]H[dD]N; lactam 4-C), the “mortality relative to control” value in the experiment with Clostridium perfringens (ad libitum in water, PAAG at 100 ppm) was “reduced mortality with statistical significance; also recorded: reduced morality with statistical significance”.
